Assay results reported in doi:10.1101/2021.06.28.449968v1 (biorxiv, 2021).

Molecular target: T1, full-length Abl1 NanoLuc fusion (Abl1-Nluc, NLuc-Abl1) (Homo sapiens, UniProt P00519)
T1 construct: full-length Abl1 fused to the C-terminus of NanoLuc luciferase (Promega plasmid), transiently expressed in HEK293T cells
Assay: NanoBRET tracer isotherm in live HEK293T cells
Format: cell-based
Details: labelled compound; […] h; ATP site; read-out: Kd,app
Text: NanoBRET tracer isotherm in live HEK293T cells on full-length Abl1 NanoLuc fusion (Abl1-Nluc, NLuc-Abl1) | tracer probe (K-4, Promega), suitable for all mutants

T1 sequence (P00519 whole entry, the tested form may be a part): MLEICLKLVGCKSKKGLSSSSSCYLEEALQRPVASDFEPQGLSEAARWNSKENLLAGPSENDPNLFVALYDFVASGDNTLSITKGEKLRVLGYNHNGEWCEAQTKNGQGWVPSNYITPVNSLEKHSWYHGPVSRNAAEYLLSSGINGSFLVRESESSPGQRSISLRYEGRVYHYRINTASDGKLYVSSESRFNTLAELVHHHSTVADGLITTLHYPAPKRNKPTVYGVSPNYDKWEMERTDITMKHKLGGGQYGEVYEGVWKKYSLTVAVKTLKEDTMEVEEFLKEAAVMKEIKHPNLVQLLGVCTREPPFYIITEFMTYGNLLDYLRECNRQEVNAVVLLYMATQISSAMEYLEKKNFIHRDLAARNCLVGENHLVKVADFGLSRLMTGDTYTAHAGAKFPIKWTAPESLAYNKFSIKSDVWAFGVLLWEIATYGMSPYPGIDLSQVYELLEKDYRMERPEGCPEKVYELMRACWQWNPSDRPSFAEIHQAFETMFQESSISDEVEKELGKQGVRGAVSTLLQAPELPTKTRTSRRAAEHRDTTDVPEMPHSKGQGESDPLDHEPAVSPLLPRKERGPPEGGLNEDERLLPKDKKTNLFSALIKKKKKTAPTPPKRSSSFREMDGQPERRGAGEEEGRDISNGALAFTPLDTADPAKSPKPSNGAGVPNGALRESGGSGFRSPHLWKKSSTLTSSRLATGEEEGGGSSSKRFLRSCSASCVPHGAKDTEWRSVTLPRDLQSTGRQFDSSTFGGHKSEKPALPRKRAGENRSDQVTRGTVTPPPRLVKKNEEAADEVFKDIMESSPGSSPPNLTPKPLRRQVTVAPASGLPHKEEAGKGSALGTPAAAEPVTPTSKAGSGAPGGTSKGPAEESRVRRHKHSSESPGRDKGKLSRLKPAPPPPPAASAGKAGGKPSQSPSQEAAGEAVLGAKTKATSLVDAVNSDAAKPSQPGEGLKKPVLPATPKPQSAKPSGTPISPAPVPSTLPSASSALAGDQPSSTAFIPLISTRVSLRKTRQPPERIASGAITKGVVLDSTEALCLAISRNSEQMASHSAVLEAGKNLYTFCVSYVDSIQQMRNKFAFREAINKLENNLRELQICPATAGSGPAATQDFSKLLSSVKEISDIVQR

Kd: 0.0386 µM
Substance: NanoBRET tracer K-4 (Promega)
